Two substances from paper PMC9782819, “Ramosin: The First Antibacterial Peptide Identified on Bolitoglossa ramosi Colombian Salamander” (Pharmaceutics, 2022) can be followed below.

Where no end group is shown, it is not given here.

Data set [1] has as its system Staphylococcus aureus ATCC 29,213. As to the kind of experiment: Broth microdilution endpoint assay / MIC. In kind it is cell-based. To be noted: 19 h treatment, absorbance 600 nm, p > 0.005. How it is done:
(§1) To determine the minimum inhibitory concentrations (MICs) of the candidate peptides, the 96-well plate microdilution assay, described by the Clinical and Laboratory Standards Institute (CLSI) and the European Committee on Antimicrobial Susceptibility Testing (EUCAST), was performed. For testing the antimicrobial activity of the candidate peptides, Gram-positive and Gram-negative bacterial strains were used. […] For this assay, 3 to 5 colonies were taken from the agar and grown to exponential phase in tryptic soy broth (TSB) liquid medium defined as a 0.5 McFarland value measured with a densichek plus (Biomérieux). […] The plates were incubated for 18 h at 37 °C, and subsequently the absorbance was read in a MultiSkan GO (Thermofisher, Waltham, MA, USA) at 600 nm. […] To determine if the effect of the peptides was bactericidal or bacteriostatic, once the absorbance reading was completed, 10 μL were taken from each well where bacterial growth inhibition was observed and they were sown in TSA agars and incubated at 37 °C for 24 h. […]
(§2) All bacterial strains used were ATCC reference strains. The antibacterial activity of Ramosin was evaluated using the Wiegand et al. protocol. […]
(§3) In addition to absorbance measurement, a bacterial growth test was performed. […]

For data set [2], the system named is Bacillus cereus ATCC 6464. Nature of the data set: Growth inhibition kinetics (bactericidal or bacteriostatic). To be noted: 19 h, peptide 70 μM. Format: cell-based. How it is done: (§4) To determine the minimum inhibitory concentrations (MICs) of the candidate peptides, the 96-well plate microdilution assay, described by the Clinical and Laboratory Standards Institute (CLSI) and the European Committee on Antimicrobial Susceptibility Testing (EUCAST), was performed. For testing the antimicrobial activity of the candidate peptides, Gram-positive and Gram-negative bacterial strains were used. The strains used were Staphylococcus aureus ATCC 29,213 (S. aureus), Enterococcus faecalis ATCC 29,212 (E. faecalis), Bacillus cereus ATCC 6464 (B. cereus), and Micrococcus luteus ATCC 9341 (M. luteus) as Gram-positive, and Escherichia coli ATCC 25,922 (E. coli), Pseudomonas aeruginosa ATCC 27,853 (P. aeruginosa), and Salmonella typhimurium ATCC 14,028 (S. typhimurium) as Gram-negative. The bacteria were cultivated in tryptic soy agar (TSA) until the time of carrying out the antimicrobial activity assay. For this assay, 3 to 5 colonies were taken from the agar and grown to exponential phase in tryptic soy broth (TSB) liquid medium defined as a 0.5 McFarland value measured with a densichek plus (Biomérieux). Bacteria were diluted to a final concentration of 5 × 10^5 CFU/mL. […] The plates were incubated for 18 h at 37 °C, and subsequently the absorbance was read in a MultiSkan GO (Thermofisher, Waltham, MA, USA) at 600 nm. […] To determine if the effect of the peptides was bactericidal or bacteriostatic, once the absorbance reading was completed, 10 μL were taken from each well where bacterial growth inhibition was observed and they were sown in TSA agars and incubated at 37 °C for 24 h. […]
(§5) All bacterial strains used were ATCC reference strains. The antibacterial activity of Ramosin was evaluated using the Wiegand et al. protocol. […] Two types of tests were carried out: the endpoint, in which the absorbance of the plates was read after 19 h of treatment, and kinetics, in which plate readings were made every hour to determine whether the effect of the peptides was bactericidal or bacteriostatic.
as §3

Data set [3] deals with Escherichia coli ATCC 25,922. The description is as above. In kind it is cell-based. To be noted: 19 h, peptide 70 μM. How it is done: as §4, §5, §3
Data set [4] has as its system Pseudomonas aeruginosa ATCC 27,853. The description is as above. Format: cell-based. To be noted: 19 h, peptide 70 μM. How it is done: as §4, §5, §3
The subject of data set [5] is Staphylococcus aureus ATCC 29,213. The data set is described as above. In kind it is cell-based. The note with it: 19 h, peptide 70 μM. How it is done: as §1, §2, §3
The subject of data set [6] is Escherichia coli ATCC 25,922. In kind it is cell-based. The note with it: ATCC 25, 18 h. As for the experimental part: as §1, §2, §3

Description for human red blood cells: The hemolytic activity of the peptide was determined as previously reported [45]. In brief, its hemolytic activity of the peptide was evaluated by determining the amount of the released hemoglobin from a 4% v/v suspension of fresh human red blood cells (RBCs). In 96-well plates, 65 μL of the RBCs suspension and 65 μL of each peptide dilution were mixed. […] Plates were incubated at 37 °C for two hours, then centrifuged at 2500× g for 5 min. A total of 80 μL of supernatant was recovered and transferred to another 96-well plate, and absorbance at 540 nm was measured in a MultiSkan GO (Thermofisher, Waltham, MA, USA). The percentage of hemolysis was calculated according to the following formula [45]: (1) %Hemolysis=OD450 in the peptide suspension−OD450 negative control in PBS/OD450 of positive control−OD450 negative control in PBS×100

On to Buforin II, for which the “effect on viability of S. aureus, endpoint assay (peptide control)” value in data set [1] is reported as “did not have a statistically significant effect”. Further, the “effect on B. cereus at 70 μM” value in data set [2] is reported as “failed to inhibit the growth”. For the same substance, in data set [3], the “effect on E. coli at 70 μM” value was “bactericidal effect”. The “effect on P. aeruginosa at 70 μM” value in data set [4] is given as “bactericidal effect”. Further, in data set [5], the “effect on S. aureus at 70 μM” value was “failed to inhibit the growth”.

GWFSLVRKVVGGVGSL-NH2 [Ramosin]: the “MIC for E. coli” value in data set [6] is 17.5 µM. In addition, the “non-hemolytic concentration relative to MIC” value in the data set with human red blood cells is “up to four times its MIC”.
